One series relates to SUDHL5 cells. Nature of the series: Cell viability, 72 h compound treatment (PrestoBlue), SUDHL5. In kind it is cell-based, human. The note with it: SUDHL5, 72 h. Here is the method:
Thirty thousand cells were seeded in 100 μl of media per well of a 96-well plate and treated with drug for the indicated times and doses. A resazurin-based indicator of cell health (PrestoBlue; P50200, Thermo Fisher) was added for 1.5 h at 37°C, at which point the fluorescence ratio at 560/590 nm was recorded (Tecan Spark). The background fluorescence was subtracted, and the signal was normalized to DMSO-treated cells. IC50 measurements on cell lines were calculated using at least three biological replicates (separate cell passages). Fit of dose–response curves to data and statistical analysis was performed using GraphPad PRISM using the four-parameter log(inhibitor) vs response function.

Another series relates to SUDHL5. Nature of the series: Cell viability, 7 days compound treatment (Cell Titer-Glo), SUDHL5. In kind it is cell-based. The note with it: Homo sapiens, SU-DHL-5, 168 h; SUDHL5, 7 days; read-out: IC50 of antiproliferation. Here is the method: Fifteen thousand cells were seeded in 100 μl of media per well of a U-bottom 96-well plate and treated with digitally dispensed drugs (Tecan D300e) for the indicated times and doses. After 96 hours, plates were centrifuged for 750 rpm for 3 minutes, and old media was exchanged for 100 μl of fresh media. Drug treatment was then repeated at the indicated doses. 72 hours following media change, cells were transferred to 96 well flat-bottom opaque plates. Viability was measured by adding 25 μL Cell Titer-Glo reagent (Promega G7570) to each well and luminescence was measured (BMG Labtech Pherastar FS). The background luminescence was subtracted, and the signal was normalized to DMSO-treated cells. IC50 measurements on cell lines were calculated using at least three biological replicates by separate cell passages. Fit of dose–response curves to data and statistical analysis was performed using GraphPad PRISM using the four-parameter log(inhibitor) vs response function.
For orientation: Cellular ATP, detected with luciferase, serves as a proxy for viable cell number.

Series [1] has as its system primary human fibroblasts. Nature of the series: Viability of primary human fibroblasts, 72 h. It is filed as cell-based. The note with it: compared with SUDHL5. As for the experimental part: Lymphoma and leukemia cells were grown in RPMI-1640 medium (ATCC 30–2001) supplemented with 10% fetal bovine serum (FBS) and 1% 100X Penicillin-Streptomycin (Gibco, 15140122) in incubators at 37°C with 5% carbon dioxide. KARPAS422 cells were obtained from Sigma (06101702) and DB and SUDHL5 were obtained from the American Tissue Culture Collection (ATCC). The Daudi cell line, originally from ATCC, was generously provided by R. Levy’s laboratory at Stanford University. Raji cells, also from ATCC, were a gift from J. Cochran’s laboratory at Stanford University. TOLEDO and K562 cells were originally obtained from ATCC and were kindly shared by A. Alizadeh’s laboratory at Stanford University. […]
Thirty thousand cells were seeded in 100 μl of media per well of a 96-well plate and treated with drug for the indicated times and doses. A resazurin-based indicator of cell health (PrestoBlue; P50200, Thermo Fisher) was added for 1.5 h at 37°C, at which point the fluorescence ratio at 560/590 nm was recorded (Tecan Spark). The background fluorescence was subtracted, and the signal was normalized to DMSO-treated cells. IC50 measurements on cell lines were calculated using at least three biological replicates (separate cell passages). […]

The test system of a further series is c-MYC mRNA. In words: RT-qPCR of c-MYC transcripts in SUDHL5. The note with it: SUDHL5, 1 nM. In kind it is cell-based, human. Here is the method: Cells were plated at 1M/mL and harvested in TRIsure (Bioline 38033). RNA was extracted using Direct-zol RNA MicroPrep columns (Zymo R2062) treated with DNAseI. cDNA was prepared (Meridian Bioscience BIO-65054) and used for qPCR (Meridian Bioscience BIO-94050) using an AppliedBiosystems QuantStudio 6Pro. Primer sequences were the following:
• c-MYC fwd: […]; • c-MYC rev: […]; • GAPDH fwd: […]; • GAPDH rev: […].
(Real-time PCR tracks product formation cycle by cycle.)

These results are taken from article doi:10.1101/2025.03.14.643404, “A Bivalent Molecular Glue Linking Lysine Acetyltransferases to Oncogene-induced Cell Death” (bioRxiv, 2025).

Entries after “also recorded” stand apart in the source; their conditions may differ.

On to `CNC(=O)COc1cc2cc(Nc3nc(N4CCC(C(=O)N5CCN(CCC(=O)N6CCC(n7nc(N8CCCc9cc(-c%10cnn(C)c%10)c(C(F)F)cc98)c8c7CCN(C(=O)NC)C8)CC6)CC5)CC4)ncc3Cl)cc(OC)c2n(C)c1=O` [TCIP3], for which, in the series with SUDHL5 cells (Homo sapiens, SU-DHL-5, read-out: IC50 cell viability / antiproliferation), the IC50 is 0.8 nM. Moreover, in the series with SUDHL5 cells, the “IC50 cell viability / antiproliferation” value is reported as “sub-nanomolar”, the “times more cytotoxic than either NEG1 or NEG2” value was “over 1,000 times”, the “times more potent than A-485” value was determined as 238 times and the “times more potent than dCBP-1” value stood at 12 times. The IC50 in the series on SUDHL5 was 1.2 nM. Besides, the “cytotoxicity” value in series [1] is reported as “substantially reduced cytotoxicity; also recorded: without exhibiting toxicity”. Further, the “t1/2 of c-MYC mRNA decrease” value in the series on c-MYC mRNA worked out at 33 min.
